This passage reports IC50, selectivity and inhibitory activity results from patent publication CN107475146A, “一种链霉菌及其代谢产物粉蝶霉素类化合物在抗肾癌中的应用” (priority 2017, dated 2017).

What all share (type): cell-based
In assay [1] the test system is 786-O human renal cancer cell line [786-O人肾癌细胞株]. Kind of assay: CCK-8 assay, inhibition of proliferation of 786-O human renal cancer cells.
For assay [2], the system named is 786-O and ACHN cells [786-O和ACHN细胞]. Kind of assay: CCK-8 assay, 786-O and ACHN human renal cancer cells, result stated jointly for both lines.
In assay [3] the test system is ACHN human renal cancer cell line [ACHN人肾癌细胞株]. Kind of assay: CCK-8 assay, inhibition of proliferation of ACHN human renal cancer cells. Particulars: 72 h.
In assay [4] the test system is OS-RC-2 human renal cancer cell line [OS-RC-2人肾癌细胞株]. Kind of assay: CCK-8 assay, inhibition of proliferation of OS-RC-2 human renal cancer cells. Particulars: for IC50: CCK-8, 72 h. On the technique in general: Tetrazolium assays rely on reduction of a dye to a coloured formazan, in cell work by metabolically active cells.

In general, IC50 refers to the concentration needed to halve the response being measured. In the case of `CC=C(C)C(O)C(C)C=C(C)C=CCC(C)=CCc1nc(OC)c(OC)c(O)c1C` (centres unmarked) [化合物1, Piericidin A], the IC50 was 29.9 µM in assay [1] (Homo sapiens, 786-0, 72 h); 0.4 to 72 µM in assay [2] (Homo sapiens, joint range over compounds 1, 2, 4 and 5, CCK-8, 72 h); 0.4 µM in assay [3] (Homo sapiens); 5.16 µM in assay [4] (Homo sapiens).
IT-143-A [compound 4]: the IC50 was 61.1 µM in assay [1] (72 h) and 20.5 µM in assay [4].
The like results for IT-143-B [化合物5] were, in that order, 72 µM and 42.1 µM.
Regarding Piericidin A2 [化合物2], the IC50 in assay [1] (72 h) was found to be 50.3 µM; in assay [3] it was 14.2 µM; in assay [4] it was 16.4 µM.
Turning to Piericidin C2 [化合物3], the values for the half-maximal inhibitory concentration (IC50) in assay [1] (72 h) and in assay [4] were greater than 100 µM and 22.4 µM, respectively.
As for Piericidin s3a [化合物6], the values for the IC50 in assay [1] (72 h) and in assay [4] were greater than 100 µM and 30.9 µM, respectively. In assay [2] (in words), the selectivity result was “具有一定的选择性”. Also, in assay [4] (in words), the inhibitory activity result is “具有抑制活性”.
